{"source": "ChEMBL document CHEMBL1131505", "about": "“(+)-cis-N-ethyleneamino-N-normetazocine derivatives. Novel and selective sigma ligands with antagonist properties” (J Med Chem, 1998)", "key": {"[1]": {"molecular_target": "Sigma 2 receptor", "test": "Inhibition of [3H]DTG binding to sigma-2 sites of guinea pig brain membranes"}, "[2]": {"molecular_target": "T1, Opioid receptor (Rattus norvegicus, UniProt P33533+P34975+P33535)", "test": "Inhibition of [3H]naloxone binding to Opioid receptors of rat brain membranes", "assay_type": "cell membranes, Membrane"}, "[3]": {"molecular_target": "T2, D(2) dopamine receptor (Rattus norvegicus, UniProt P61169)", "T2 sequence (P61169 whole entry)": "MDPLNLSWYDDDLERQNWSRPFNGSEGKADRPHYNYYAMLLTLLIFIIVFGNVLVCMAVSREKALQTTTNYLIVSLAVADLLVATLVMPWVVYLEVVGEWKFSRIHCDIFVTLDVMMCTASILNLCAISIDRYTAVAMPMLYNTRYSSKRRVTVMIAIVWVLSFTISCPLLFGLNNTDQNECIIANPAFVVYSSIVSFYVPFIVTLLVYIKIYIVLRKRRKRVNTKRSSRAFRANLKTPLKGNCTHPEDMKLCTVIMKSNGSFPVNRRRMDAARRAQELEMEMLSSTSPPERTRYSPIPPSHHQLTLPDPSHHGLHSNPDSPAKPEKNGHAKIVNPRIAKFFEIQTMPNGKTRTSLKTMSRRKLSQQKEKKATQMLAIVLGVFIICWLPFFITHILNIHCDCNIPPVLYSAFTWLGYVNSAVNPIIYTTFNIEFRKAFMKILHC", "test": "Binding affinity towards Dopamine receptor D2 in the rat striatal membranes using [3H]spiroperidol", "assay_type": "cell membranes, Striatum, Membrane"}, "[4]": {"molecular_target": "T3, Muscarinic acetylcholine receptor M2 (Rattus norvegicus, UniProt P10980)", "T3 sequence (P10980 whole entry)": "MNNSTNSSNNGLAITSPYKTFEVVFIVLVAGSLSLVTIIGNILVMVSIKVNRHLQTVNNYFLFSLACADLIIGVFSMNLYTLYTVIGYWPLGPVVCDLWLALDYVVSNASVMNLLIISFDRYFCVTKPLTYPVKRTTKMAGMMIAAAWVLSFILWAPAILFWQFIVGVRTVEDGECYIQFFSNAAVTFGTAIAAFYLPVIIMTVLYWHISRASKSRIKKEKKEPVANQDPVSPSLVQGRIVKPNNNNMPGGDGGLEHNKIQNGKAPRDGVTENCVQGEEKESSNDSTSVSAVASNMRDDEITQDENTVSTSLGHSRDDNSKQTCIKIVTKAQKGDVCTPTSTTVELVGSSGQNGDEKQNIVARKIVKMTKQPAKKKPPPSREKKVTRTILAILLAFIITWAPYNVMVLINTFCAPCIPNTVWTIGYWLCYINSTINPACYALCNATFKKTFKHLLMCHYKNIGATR", "test": "Inhibition of [3H]N-methylscopolamine binding to Muscarinic acetylcholine receptor M2 of rat heart membranes", "assay_type": "cell membranes, Membrane"}, "[5]": {"test": "Compound was tested for its binding affinity towards PCP receptor in rat membranes in the presence of [3H]-(+)-SKF- 10,047", "assay_type": "cell membranes"}, "[6]": {"molecular_target": "Serotonin 2 (5-HT2) receptor", "test": "Inhibition of [3H]ketanserin binding to 5-hydroxytryptamine 2 receptor of guinea pig frontal cortex membranes", "assay_type": "tissue-based, Cavia porcellus"}, "[7]": {"molecular_target": "T2, D(2) dopamine receptor", "test": "Inhibition of [3H]spiroperidol binding to Dopamine receptor D2 of rat striatal membranes", "assay_type": "cell membranes, Membrane"}, "[8]": {"molecular_target": "T1, Opioid receptor", "test": "Compound was tested for its binding affinity towards Opioid receptors in rat membranes in the presence of [3H]naloxone", "assay_type": "cell membranes"}}, "data": [{"smiles": "CCN(CCN1CC[C@@]2(C)c3cc(O)ccc3C[C@H]1[C@H]2C)c1ccccc1", "values": [{"measurement": "Ki", "setting": "[1]", "result": 151, "unit": "nM"}, {"measurement": "Ki", "setting": "[2]", "result": 211, "unit": "nM"}]}, {"smiles": "C[C@@H]1[C@@H]2Cc3ccc(O)cc3[C@]1(C)CCN2CCN1CCCCC1", "values": [{"measurement": "Ki", "setting": "[3]", "result": "> 10000", "unit": "nM"}, {"measurement": "Ki", "setting": "[4]", "result": 7800, "unit": "nM"}, {"measurement": "Ki", "setting": "[1]", "result": 114, "unit": "nM"}, {"measurement": "Ki", "setting": "[2]", "result": 12000, "unit": "nM"}, {"measurement": "Ki", "setting": "[5]", "result": "> 10000", "unit": "nM"}, {"measurement": "Ki", "setting": "[6]", "result": "> 10000", "unit": "nM"}]}, {"smiles": "C=CCN1CC[C@]2(C)c3cc(O)ccc3CC1[C@@H]2C", "note": "(single isomer, unassigned; (+))", "values": [{"measurement": "Ki", "setting": "[4]", "result": "> 10000", "unit": "nM"}, {"measurement": "Ki", "setting": "[5]", "result": 448, "unit": "nM"}, {"measurement": "Ki", "setting": "[7]", "result": "> 10000", "unit": "nM"}, {"measurement": "Ki", "setting": "[8]", "result": 1900, "unit": "nM"}, {"measurement": "Ki", "setting": "[6]", "result": "> 10000", "unit": "nM"}]}, {"smiles": "C[C@@H]1[C@@H]2Cc3ccc(O)cc3[C@]1(C)CCN2CCN(C)c1ccccc1", "values": [{"measurement": "Ki", "setting": "[1]", "result": 124, "unit": "nM"}, {"measurement": "Ki", "setting": "[2]", "result": 28.8, "unit": "nM"}]}, {"smiles": "C[C@@H]1[C@@H]2Cc3ccc(O)cc3[C@]1(C)CCN2CCNc1ccccc1", "values": [{"measurement": "Ki", "setting": "[1]", "result": 111, "unit": "nM"}, {"measurement": "Ki", "setting": "[2]", "result": 79.8, "unit": "nM"}]}, {"smiles": "C[C@@H]1[C@@H]2Cc3ccc(O)cc3[C@]1(C)CCN2CCN(C)C", "values": [{"measurement": "Ki", "setting": "[4]", "result": "> 10000", "unit": "nM"}, {"measurement": "Ki", "setting": "[1]", "result": 347, "unit": "nM"}, {"measurement": "Ki", "setting": "[2]", "result": 2888, "unit": "nM"}, {"measurement": "Ki", "setting": "[5]", "result": 3380, "unit": "nM"}, {"measurement": "Ki", "setting": "[7]", "result": "> 10000", "unit": "nM"}, {"measurement": "Ki", "setting": "[6]", "result": "> 10000", "unit": "nM"}]}, {"smiles": "C[C@@H]1[C@@H]2Cc3ccc(O)cc3[C@]1(C)CCN2CCNCc1ccccc1", "values": [{"measurement": "Ki", "setting": "[1]", "result": 187, "unit": "nM"}, {"measurement": "Ki", "setting": "[8]", "result": 366, "unit": "nM"}]}, {"smiles": "C[C@@H]1[C@@H]2Cc3ccc(O)cc3[C@]1(C)CCN2CCN1CCOCC1", "values": [{"measurement": "Ki", "setting": "[4]", "result": 419, "unit": "nM"}, {"measurement": "Ki", "setting": "[1]", "result": 300, "unit": "nM"}, {"measurement": "Ki", "setting": "[2]", "result": 8168, "unit": "nM"}, {"measurement": "Ki", "setting": "[5]", "result": "> 1000", "unit": "nM"}, {"measurement": "Ki", "setting": "[7]", "result": "> 10000", "unit": "nM"}, {"measurement": "Ki", "setting": "[6]", "result": "> 10000", "unit": "nM"}]}, {"smiles": "C[C@@H]1[C@@H]2Cc3ccc(O)cc3[C@]1(C)CCN2CCN1CCCC1", "values": [{"measurement": "Ki", "setting": "[4]", "result": 1950, "unit": "nM"}, {"measurement": "Ki", "setting": "[1]", "result": 260, "unit": "nM"}, {"measurement": "Ki", "setting": "[2]", "result": 3800, "unit": "nM"}, {"measurement": "Ki", "setting": "[5]", "result": "> 10000", "unit": "nM"}, {"measurement": "Ki", "setting": "[7]", "result": "> 10000", "unit": "nM"}, {"measurement": "Ki", "setting": "[6]", "result": "> 10000", "unit": "nM"}]}, {"smiles": "C[C@@H]1[C@@H]2Cc3ccc(O)cc3[C@]1(C)CCN2CCN1CCCCCC1", "values": [{"measurement": "Ki", "setting": "[4]", "result": 1840, "unit": "nM"}, {"measurement": "Ki", "setting": "[1]", "result": 151, "unit": "nM"}, {"measurement": "Ki", "setting": "[2]", "result": 9128, "unit": "nM"}, {"measurement": "Ki", "setting": "[5]", "result": 50.2, "unit": "nM"}, {"measurement": "Ki", "setting": "[7]", "result": "> 10000", "unit": "nM"}, {"measurement": "Ki", "setting": "[6]", "result": "> 10000", "unit": "nM"}]}, {"smiles": "C[C@@H]1[C@@H]2Cc3ccc(O)cc3[C@]1(C)CCN2CCNC1CCCCC1", "values": [{"measurement": "Ki", "setting": "[4]", "result": "> 10000", "unit": "nM"}, {"measurement": "Ki", "setting": "[1]", "result": 328, "unit": "nM"}, {"measurement": "Ki", "setting": "[2]", "result": 1466, "unit": "nM"}, {"measurement": "Ki", "setting": "[5]", "result": "> 10000", "unit": "nM"}, {"measurement": "Ki", "setting": "[7]", "result": "> 10000", "unit": "nM"}, {"measurement": "Ki", "setting": "[6]", "result": "> 10000", "unit": "nM"}]}, {"smiles": "CCN(CC)CCN1CC[C@@]2(C)c3cc(O)ccc3C[C@H]1[C@H]2C", "values": [{"measurement": "Ki", "setting": "[4]", "result": 1990, "unit": "nM"}, {"measurement": "Ki", "setting": "[1]", "result": 378, "unit": "nM"}, {"measurement": "Ki", "setting": "[2]", "result": 12290, "unit": "nM"}, {"measurement": "Ki", "setting": "[5]", "result": 7640, "unit": "nM"}, {"measurement": "Ki", "setting": "[7]", "result": "> 10000", "unit": "nM"}, {"measurement": "Ki", "setting": "[6]", "result": "> 10000", "unit": "nM"}]}, {"smiles": "CC(C)=CCN1CC[C@]2(C)c3cc(O)ccc3C[C@H]1[C@H]2C", "note": "(single isomer, unassigned) [(+)-PENTAZOCINE]", "values": [{"measurement": "Ki", "setting": "[5]", "result": 4320, "unit": "nM"}, {"measurement": "Ki", "setting": "[8]", "result": 2370, "unit": "nM"}]}]}
